Measured values reported in US7348163B2, “Human GABAB receptor 1 promoters” (AstraZeneca AB, priority 1999, dated 2008).

Test system: human GABAB receptor 1 promoter P1b
Test: Luciferase reporter assay of GABAB receptor 1 promoter P1b activity (pAM440) in transfected ND7/23 cells
Type: cell-based
Details: Forskolin 10 μM + 1-methyl-3-isobutylxanthine 0.125 mM, 24 h
Procedure: Reporter constructs containing R1a and R1b promoter fragments were generated by PCR using plasmid pAM 364, containing genomic sequence covering the promoter regions, as template. PCR reaction was performed by standard procedure (Perkin Elmer). Briefly, an initial denaturation at 95° C. for 4 min was followed by 35 cycles of denaturation at 95° C. for 1 min, annealing at 60° C. for 1 min, elongation at 72° C. for 1 min and finally a 7 min elongation at 72° C. […]
To determine putative promoter activity, the reporter gene constructs were introduced into mammalian cells by transfection. […] Luciferase activity in cell extracts was measured in a Luciferase Assay System (Promega), where 40 μl of cell extracts was added to a 96-well plate (Maxisorp, Nunc) and mixed with 50 μl of luciferase substrate. Luciferase activity was then measured in a LUMIstar (BMG Lab technologies). As internal control for transfection efficiency, β-Galactosidase (β-Gal.) activity was measured in 96-well plate (Maxisorp, Nunc) using a β-Galactosidase Enzyme Assay (Promega) according to suppliers protocol.
ND7/23 cells (4×10^5) were transfected with promoter-luciferase constructs as described above. […] After incubation, cells were harvested and luciferase activity measured. Luciferase activity, minus background, is shown as arbitrary light units measured in 40 μl of cell extracts. […]

## CC(C)Cn1c(=O)n(C)c(=O)c2[nH]cnc21 [IBMX, 1-methyl-3-isobutylxanthine]
  further enhancement of forskolin induced expression: does not show a significant difference
